The values below come from patent publication US20150297619A1, “METHODS AND COMPOSITIONS FOR PRESERVING THE MUCOSAL BARRIER” (priority 2014, published 2015).

In experiment [1] the test system is ~20-kDa serine proteases. As to the kind of experiment: Gelatin gel zymography of plasma, lung and intestine samples renatured with serine protease inhibitors. Format: biochemical, rat. The following applies: 75 μmol/L ANGD or 100 lmol/L TLCK in renaturing and developing buffers, lung, intestine samples. The procedure:
Protease Activity—Gelatin gel zymography was completed as previously described. When present, the luminal contents from the jejunal tissue were discarded by gentle compression of the intestine before homogenization to prevent excess digestion of the gelatin substrate in the gels by luminal proteases. Tissues from shocked animals (flushed and nonflushed) as well as controls were rinsed and blotted dry before weighing. Protein concentration was determined using the BCA kit before mixing each sample in a 1:1 ratio with loading dye (containing sodiumdodecyl sulfate (SDS), but no reducing agent). Two microgram protein/lane of intestine or 20 μg protein/lane of lung homogenates were loaded. Plasma (0.5 μL) was mixed with 2 μL loading dye and loaded into each lane.
Samples were separated by gel electrophoresis in 11% sodiumdodecyl sulfate polyacrylamide gel electrophoresis (SDS-PAGE) gelatin impregnated gels. Upon separation, gel proteins were renatured in 2.5% Triton-X 100 in water (49, 15 min) before incubation at 37° C. overnight in developing buffer (0.05 mol/L Tris base, 0.2 mol/L NaCl, 4 μmol/L ZnCl2, 5 mmol/L CaCl2.2H2O). Gels were then fixed and stained (50% methanol, 10% acetic acid, 40% water, and 0.25% Coomassie blue solution) for 3 h, destained in water to achieve appropriate contrast before digital analysis (ImageJ).
To confirm that the ˜20-kDa bands were serine proteases, gels were renatured and developed in the aforementioned buffers with the addition of either 75 μmol/L serine protease inhibitor ANGD (nafamostat mesilate) or 100 lmol/L trypsin inhibitor tosyl-lysine chloromethyl ketone (TLCK) and compared to duplicate gels that were subject to the standard renaturation procedure.

In experiment [2] the test system is ischemic small intestine segments (jejunum to ileum). As to the kind of experiment: Ex vivo intestinal ischemia: transmural fluorescein transport across wall of flushed intestinal segments. Also noted: species or system rat. The source says: Intestinal Ischemia—Since intestinal properties are non-homogenous, the transmural permeability was investigated over the entire length of the jejunum and ileum. Due to physical constraints of the small intestine anatomy, it is not feasible to simultaneously analyze permeability from multiple segments in vivo. Therefore, an ex vivo approach similar to previously published studies was designed to measure permeability along the length of the small intestine.
A midline incision was made to expose the intestine in anesthetized rats. The proximal end of the jejunum (approximately 5 cm distal from the ligament of Treitz) was cannulated with a female luer to barb tube connector (⅛″ inner diameter). The intestine was removed and placed in saline immediately before euthanasia. In order to focus the analysis on permeability of the intestinal wall during ischemia in the absence of luminal contents (including the digestive proteases or cytotoxic factors from food), the lumen of the intestine was flushed with 40 ml saline using pulsatile pressure. Visual examination confirmed all solid contents were removed. Next, the intestine was cut into eight equal length segments (˜8 cm) sequentially ordered from the proximal jejunum (position 1) to the distal ileum (position 8). Both ends of each segment were cannulated with Female Luer to Barb tube connectors (thus allowing entry and exit points from the intestinal lumen to be sealed completely), secured with 4-0 suture, and the exterior portion of one adaptor on each segment sealed with clay.
To determine the transmural permeability of the intestine, all 8 segments from each animal were filled with a low molecular weight tracer as a sensitive measure of early barrier breakdown prior to the initiation of ischemia, fluorescein (332 Da M.W., 20 μg/ml from 5 mg/ml stock in ethanol; 0.308 osm/L; Sigma-Aldrich, St. Louis, Mo.) mixed with saline, glucose (100 mg/ml in saline; 0.550 moles/L; 0.863 osm/L, Sigma-Aldrich), the non-metabolizing glucose analog mannitol (100 mg/ml in saline; 0.550 moles/L; 0.863 osm/L), the serine protease inhibitor tranexamic acid (31 mg/ml in saline; 0.200 moles/L; 0.508 osm/L, Sigma-Aldrich), the MMP inhibitor doxycycline hyclate (1 mg/ml in saline; 1.955×10^−3 moles/L; 0.310 osm/L, Sigma-Aldrich), or the MMP inhibitor GM 6001 [38] (1 μg/ml in saline from 1 mg/ml stock in DMSO; 2.57×10^−6 moles/L; 0.308 osm/L, Millipore, Billerica, Md.). […]
Sealed segments were rinsed in saline, individually placed in 15 ml conical tubes containing 6 ml saline, and incubated at 37° C. for 2 hours to simulate ischemic conditions. […] Plates were read in a plate reader (FilterMax F-5 Multi-mode, Molecular Devices, Sunnyvale, Calif.) for concentration of fluorescein (excitation 494/emission 521) to measure diffusion across the wall of the intestine.
Permeability Analysis—To determine the fluorescein transport across the ischemic intestinal wall, the fluorescence at time 0 was subtracted from fluorescence values at later time points to correct for background, and fluorescence values were corrected to account for the volume reduction due to sampling during the experiment. The RFU measurements were converted to equivalent moles by using the linear relationship between concentration and fluorescein fluorescence (not shown, R^2=0.999). The transport of fluorescein across the wall (measured in moles, per time) was computed as the change in fluorescence over a 30 min interval divided by 30 min.

Experiment [3] relates to intestinal villi. As to the kind of experiment: Morphological analysis of intestinal villi after ex vivo ischemia (Van Gieson/hematoxylin). Also noted: species or system rat. The following applies: jejunum and ileum after 2 hrs ex vivo ischemia. The procedure:
After the two-hour ischemic incubation, intestinal pieces from segments 2 (jejunum) and 7 (ileum) were embedded in O.C.T. (Tissue Tek, Torrance, Calif.) and snap frozen in t-methyl butane in liquid nitrogen. Intestine samples from segments 2 and 7 (for protease analysis) and segment 7 (for immunoblots) were snap frozen and stored for subsequent homogenization. Morphological Analysis and TUNEL Labeling—Intestinal segments frozen in O.C.T. were cut into 5 μm sections. Sections were fixed using ice-cold methanol (8 min at −20° C.) and immediately washed four times in distilled water. Nuclei were stained by incubating sections in freshly mixed Weigert's Iron Hematoxylin A and B (Electron Microscopy Science, Hatfield, Pa.) (10 min) followed by rinsing thoroughly with water. Collagen fibers were labeled by incubating (2 min) in Van Gieson's Solution (Electron Microscopy Science). Prior to mounting, all slides were dehydrated (70, 95, 100% ethanol) and cleaned with xylene. After air-drying overnight, sections were mounted using Hard Set Mounting Media (Vector Laboratories, Burlingame, Calif.). Digital images were captured with a 20× objective (numerical aperture 0.5) and digitally montaged together after background subtraction. The separation of the mucosal epithelial layer was quantified for groups that had intact villi following the two hour ischemic period. Images were blinded and the distance between the mucosal epithelial layer and the lamina propria was measured over five lengths across a minimum of 6 villi.

In experiment [4] the test system is mucin 13, occludin, and E-cadherin. As to the kind of experiment: Immunoblots of epithelial barrier proteins in post-ischemic intestinal homogenates (segment 7). More on the design: species or system rat. As to conditions: ileum segment 7, two hour ex vivo ischemia. Here is the method:
Immunoblotting—To determine whether selected epithelial barrier proteins were degraded during ischemia, pre- and post-ischemic intestinal tissue homogenates (segment 7) were analyzed for relative levels of mucin 13, occludin, and E-cadherin.
Tissues were homogenized for immunoblot analysis in buffer (CelLytic, Sigma-Aldrich) with protease inhibitor cocktail (HALT, Thermo Scientific, 1:100 dilution) and centrifuged (1×10^4 g, 20 min). Protein concentration in supernatants was determined (BCA, ThermoScientific). To separate proteins by gel electrophoresis, 30 μg of protein/well were loaded in 8 or 12% resolving gels with 4% stacking gels and transferred to nitrocellulose membranes (Bio-Rad, Hercules, Calif.). Membranes were blocked for one hour with either 5% bovine serum albumin (BSA) or 5% nonfat milk in tris-buffered saline with 0.5% Tween-20 (TBS-T). Primary antibodies diluted in 1% BSA or 1% nonfat milk against mucin 13 (1:1000, extracellular domain, sc-66973 Santa Cruz Biotechnology, Santa Cruz, Calif.), E-cadherin (1:1000, intracellular domain, 33-4000, Invitrogen), occludin (1:1000, intracellular domain, 33-1500, Invitrogen), pancreatic trypsin (1:1000, sc-137077 Santa Cruz Biotechnology), or β-actin (1:1000, sc-130301, Santa Cruz Biotechnology) were incubated overnight at 4° C. After incubation, membranes were washed with TBS-T (3×, 10 min) before addition of goat anti-rabbit or rabbit anti-mouse secondary antibodies (Santa Cruz Biotechnology) diluted 1:1000 in TBS-T. Following secondary antibody incubation (60 min), the membranes were washed with TBS-T (3×) and developed.
A general note: Immunoblotting shows a protein as a band on a membrane.

Experiment [5] deals with MMP-9 dimers, pro-MMP-2, MMP-2, MMP-1 or MMP-3. As to the kind of experiment: Gelatin gel zymography of pre-ischemic intestinal homogenates renatured with inhibitor: MMP bands. The experiment is classed as biochemical, rat. As to conditions: inhibitor in renaturing and developing buffer: tranexamic acid 20 mM, doxycycline 1 mg/ml, GM-6001 1 ug/ml. The procedure:
Gelatin Gel Zymography—Segments 2 and 7 from pre-ischemic intestines were homogenized (0.1 g tissue/ml homogenization buffer; PBS pH 7.4 with 0.5% hexadecyltrimethyl bromide) and centrifuged at 1.4×10^4 g for 20 minutes. Supernatants were stored at −80° C. until samples were processed. To assess the proteolytic activities of individual proteases in intestinal tissue samples, sample volumes of 1 μl (with 2 μg of protein) were separated by gel electrophoresis in SDS-PAGE gels containing 80 μg/ml gelatin. […] The molecular weights of the proteases were estimated by use of a standard protein ladder (Invitrogen). Gels were digitized and bands were analyzed by densitometry in ImageJ (rsbweb.nih.gov/ij/). […] These gels were compared to a concurrently run gel processed normally.

Experiment [6] relates to 20 kDa serine proteases. As to the kind of experiment: Gelatin gel zymography of pre-ischemic intestinal homogenates renatured with inhibitor: serine protease bands. As to conditions: inhibitor in renaturing and developing buffer: tranexamic acid 20 mM, doxycycline 1 mg/ml, GM-6001 1 ug/ml. The experiment is classed as biochemical, rat. Here is the method: Gelatin Gel Zymography—Segments 2 and 7 from pre-ischemic intestines were homogenized (0.1 g tissue/ml homogenization buffer; PBS pH 7.4 with 0.5% hexadecyltrimethyl bromide) and centrifuged at 1.4×10^4 g for 20 minutes. Supernatants were stored at −80° C. until samples were processed.
To assess the proteolytic activities of individual proteases in intestinal tissue samples, sample volumes of 1 μl (with 2 μg of protein) were separated by gel electrophoresis in SDS-PAGE gels containing 80 μg/ml gelatin. […] The molecular weights of the proteases were estimated by use of a standard protein ladder (Invitrogen). Gels were digitized and bands were analyzed by densitometry in ImageJ (rsbweb.nih.gov/ij/).
These gels were compared to a concurrently run gel processed normally.

In experiment [7] the test system is experimental shock. As to conditions: cited from earlier work.
Experiment [8] concerns MMP-1/9. Kind of experiment: Plasma MMP-1/9 activity by plate zymography after hemorrhagic shock. Format: in vivo, rat. The following applies: compared to the HS+SAL animals. Here is the method:
Enzyme and Protease Activity Measurements—All microplate assays were performed in duplicate in 96 well black-sided flat bottom polystyrene plates (Corning, New York, N.Y.) and measured in a microplate reader (FilterMax F-5 Multi-mode, Molecular Devices, Sunnyvale, Calif.). Plasma MMP-1/9 activity was also detected by plate zymography using a protease specific substrate (American Peptide Company, Sunnyvale, Calif.).

In the case of tosyl-lysine chloromethyl ketone [TLCK], the “serine protease (~20 kDa) band intensities” value was “substantial decrease” in experiment [1] and “disappeared” in experiment [1] (listed as tosyllysine chloromethyl ketone hydrochloride).
For the molecule `OC[C@@H](O)[C@@H](O)[C@H](O)[C@H](O)CO` [Mannitol, mannitol], the “fluorescein transport across the wall of the intestine” value in experiment [2] (ex vivo, treatment in lumen, two-hour ischemic period) was “neither prevented fluorescein penetration”. In addition, in experiment [3], the intestinal villi structure entry is “nor preserved villi structure”.
As to `CNC(=O)[C@H](Cc1c[nH]c2ccccc12)NC(=O)[C@@H](CC(=O)NO)CC(C)C` [GM 6001, N-[(2R)-2-(hydroxamidocarbonylmethyl)-4-methylpentanoyl]-L-tryptophan methylamide], the “transmural permeability, 90-120 min period” value in experiment [2] (ex vivo ischemia, inhibitor in lumen without glucose) is reported as “more effective at reducing the transmural permeability compared to either doxycycline or tranexamic acid”. The “fluorescein transport rates, 30-60 min and 60-90 min periods” value in experiment [2] (ex vivo ischemia, inhibitor in lumen without glucose, vs saline) is on record as “significantly decreased compared to the saline treated intestines”. Moreover, the intestinal villi structure entry in experiment [3] was “did not prevent the villi destruction”. In experiment [4], the “E-cadherin levels (immunoblot)” value is reported as “neither doxycycline nor GM 6001 were effective”, the “mucin 13 levels (immunoblot)” value is given as “neither doxycycline nor GM 6001 were effective” and the “occludin levels (immunoblot)” value is recorded as “neither doxycycline nor GM 6001 were effective”. The “MMP gelatinase activity bands (220 kDa MMP-9 dimers, pro-MMP-2, MMP-2, 50 kDa band)” value in experiment [5] is “reduced or eliminated”. The “20 kDa serine protease activity bands” value in experiment [6] is reported as “serine protease bands remained in all gels”.
For `CS(=O)(=O)O.CS(=O)(=O)O.N=C(N)Nc1ccc(C(=O)Oc2ccc3cc(C(=N)N)ccc3c2)cc1` [ANGD, 6-amidino-2-naphthyl p-guanidinobenzoate dimethanesulfonate], the “serine protease (~20 kDa) band intensities” value is “substantial decrease” in experiment [1] (dimethanesulfonate) and “disappeared” in experiment [1] (listed as nafamostat mesilate, dimethanesulfonate). Besides, in experiment [7] (enteral treatment in the small intestine), the “microhemorrhages in the intestine” value was “reduced microhemorrhages in the intestine”. Besides, the “MPO infiltration into the lungs” value in experiment [7] (enteral, similar model of HS (Altshuler et al. 2012)) is “attenuate MPO infiltration into the lungs”.
`C[C@H]1c2cccc(O)c2C(=O)C2=C(O)[C@]3(O)C(=O)C(C(N)=O)=C(O)[C@@H](N(C)C)[C@@H]3[C@@H](O)[C@@H]21` [doxycycline]: the “plasma MMP-1/9 activity reduction” value in experiment [8] was 85%.
